GI50 and TGI data for seven compounds are collected here from PubChem BioAssay (NCI).

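Grown in 96-well plates, cells were treated for 48 hours with each compound at five concentrations. Insufficient inhibition: endpoint recorded as highest concentration tested. Here, GI50 denotes the concentration required for 50% inhibition of growth. At the TGI there is no net growth.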 A value given as a limit tells only on which side of the number the result lay.

Some test systems named below: HCT-116 colon; HCT-15 colon; M14 melanoma; MCF7 breast; NCI-H460 lung; SK-MEL-28 melanoma; SNB-19 CNS; SNB-75 CNS; U251 CNS; UO-31 renal.
Assay in all cases: inhibition of tumour cell growth, NCI panel, 48 h

Consider `Cc1[nH]c(=O)nc(Nc2ccc(Cl)cc2)c1C(=O)N1CCN(CCO)CC1`, for which the GI50 in the experiment with HCT-116 colon is 81.9 µM; with HCT-15 colon it was > 100 µM; in the experiment with M14 melanoma, > 100 µM; with MCF7 breast, > 100 µM; with NCI-H460 lung, > 100 µM; with SK-MEL-28 melanoma, > 100 µM. Besides, the GI50 was 33.8 µM in the experiment on SNB-19 CNS, 21.7 µM in the experiment with SNB-75 CNS, 37.6 µM with U251 CNS and > 100 µM with UO-31 renal. Also, the TGI in the experiment with HCT-116 colon, with HCT-15 colon, in the experiment on M14 melanoma, in the experiment with MCF7 breast, in the experiment with NCI-H460 lung and in the experiment with SK-MEL-28 melanoma was > 100 µM in each case. The TGI with SNB-19 CNS is > 100 µM; in the experiment with SNB-75 CNS, 52.3 µM; in the experiment with U251 CNS, > 100 µM; with UO-31 renal, > 100 µM.
For the compound `COC(=O)Nc1nc2ccc(Oc3cccc(NC(=O)Nc4cc(C(F)(F)F)ccc4F)c3)cc2[nH]1`, the GI50 was 7.71 µM with HCT-116 colon; 11.8 µM in the experiment on HCT-15 colon; 7.67 µM with M14 melanoma; 4.45 µM in the experiment with MCF7 breast; 11.4 µM with NCI-H460 lung; 11.3 µM in the experiment on SK-MEL-28 melanoma. In addition, the GI50 was > 25 µM with SNB-19 CNS, 8.53 µM with SNB-75 CNS, 15.4 µM in the experiment with U251 CNS and 14.3 µM in the experiment on UO-31 renal. For the same compound, the TGI in the experiment on HCT-116 colon was > 25 µM; in the experiment with HCT-15 colon it was > 25 µM; in the experiment on M14 melanoma it was > 25 µM; in the experiment on MCF7 breast it was > 7.9 µM; in the experiment with NCI-H460 lung, > 25 µM; in the experiment with SK-MEL-28 melanoma, > 25 µM. In addition, the TGI in the experiment on SNB-19 CNS, in the experiment with SNB-75 CNS, in the experiment on U251 CNS and with UO-31 renal was > 25 µM each time.
On to `COc1ccc(N(/C=C/C(=O)C(F)(F)F)CC(=O)c2ccc(F)cc2)cc1`, for which the GI50 in the experiment on HCT-116 colon is 14.7 µM; in the experiment on HCT-15 colon, 16 µM; with M14 melanoma, 20.6 µM; in the experiment with MCF7 breast, 43.1 µM; with NCI-H460 lung, 23.5 µM; with SK-MEL-28 melanoma, 41.1 µM. Also, the GI50 in the experiment with SNB-19 CNS was 36.6 µM; with SNB-75 CNS, > 100 µM; in the experiment on U251 CNS, 13.1 µM; in the experiment with UO-31 renal, 36.3 µM. In addition, the TGI was 27.9 µM in the experiment with HCT-116 colon; 38.7 µM in the experiment with HCT-15 colon; 56.7 µM in the experiment with M14 melanoma; > 100 µM in the experiment on MCF7 breast; 50 µM in the experiment on NCI-H460 lung; > 100 µM in the experiment on SK-MEL-28 melanoma. The TGI in the experiment on SNB-19 CNS is > 100 µM; in the experiment with SNB-75 CNS, > 100 µM; with U251 CNS, 28.3 µM; in the experiment on UO-31 renal, > 100 µM.
Turning to `CC(=O)[O][Sn]([CH2]c1ccccc1)([CH2]c1ccccc1)[CH2]c1ccccc1`, the GI50 in the experiment on HCT-116 colon was > 9.18 µM; in the experiment on HCT-15 colon, 4.25 µM; in the experiment on M14 melanoma, > 8.37 µM; in the experiment with MCF7 breast, > 10 µM; in the experiment with NCI-H460 lung it was > 10 µM; in the experiment with SK-MEL-28 melanoma, > 5.6 µM. Further, the GI50 was > 10 µM with SNB-19 CNS, > 4.28 µM in the experiment with SNB-75 CNS, > 10 µM in the experiment with U251 CNS and > 8.79 µM in the experiment with UO-31 renal. For the same compound, the TGI with HCT-116 colon is > 10 µM; in the experiment with HCT-15 colon, > 4.64 µM; with M14 melanoma it was > 10 µM; in the experiment with MCF7 breast it was > 10 µM; in the experiment with NCI-H460 lung, > 10 µM; in the experiment on SK-MEL-28 melanoma, > 6.79 µM. Besides, the TGI is > 10 µM in the experiment with SNB-19 CNS, > 5.68 µM in the experiment on SNB-75 CNS, > 10 µM in the experiment with U251 CNS and > 10 µM with UO-31 renal.
Regarding `COc1ccc(/C=C(\C(=O)NCc2cccnc2)S(=O)(=O)c2ccccc2)cc1OC`, the GI50 in the experiment on HCT-116 colon was 2.11 µM; in the experiment on HCT-15 colon, 2.85 µM; with M14 melanoma, 2.48 µM; in the experiment with MCF7 breast, 2.41 µM; with NCI-H460 lung, 2.4 µM; in the experiment with SK-MEL-28 melanoma it was 3.06 µM. Moreover, the GI50 is 3.69 µM in the experiment with SNB-19 CNS, 2.08 µM with SNB-75 CNS, 3.09 µM with U251 CNS and 2.69 µM in the experiment with UO-31 renal. Besides, the TGI amounted to 6.12 µM in the experiment with HCT-116 colon; 11.7 µM with HCT-15 colon; 8.59 µM in the experiment with M14 melanoma; 12.7 µM in the experiment on MCF7 breast; 6.67 µM in the experiment on NCI-H460 lung; 10.5 µM in the experiment with SK-MEL-28 melanoma. The TGI stood at 13.1 µM in the experiment with SNB-19 CNS, 7.84 µM in the experiment with SNB-75 CNS, 14 µM in the experiment with U251 CNS and 11.3 µM with UO-31 renal.
In the case of `Cc1cnc(CNC(=O)c2c(=O)c3ccc(N4CCCN(C)CC4)nc3n3c2sc2ccccc23)cn1`, the GI50 in the experiment on HCT-116 colon was 0.806 µM; in the experiment on HCT-15 colon, 1.03 µM; in the experiment with M14 melanoma it was 6.49 µM; in the experiment with MCF7 breast, 0.804 µM; with NCI-H460 lung, 0.162 µM; in the experiment with SK-MEL-28 melanoma, 14.8 µM. In addition, the GI50 was 1.52 µM with SNB-19 CNS, 9.55 µM in the experiment with SNB-75 CNS, 3 µM in the experiment on U251 CNS and 3.03 µM in the experiment on UO-31 renal. Also, the TGI in the experiment with HCT-116 colon came to 2.76 µM; in the experiment on HCT-15 colon it was 7.31 µM; with M14 melanoma, 23 µM; with MCF7 breast, 16.4 µM; in the experiment with NCI-H460 lung it was 2.14 µM; in the experiment with SK-MEL-28 melanoma, 30.5 µM. The TGI in the experiment with SNB-19 CNS came to 10.1 µM; with SNB-75 CNS, 25.8 µM; in the experiment with U251 CNS, 7.37 µM; in the experiment with UO-31 renal, 21.3 µM.
Consider `c1ccc2[nH]c(-c3cc(-c4ccc5c(c4)OCO5)n[nH]3)nc2c1`, for which the GI50 in the experiment with HCT-116 colon is 6.36 µM; in the experiment on HCT-15 colon it was 3.86 µM; in the experiment on M14 melanoma, 2.19 µM; in the experiment on MCF7 breast, 3.78 µM; in the experiment with NCI-H460 lung it was 4.57 µM; in the experiment on SK-MEL-28 melanoma it was 4.85 µM. Besides, the GI50 in the experiment on SNB-19 CNS was 5.92 µM; in the experiment on SNB-75 CNS, 10.1 µM; with U251 CNS, 2.37 µM; in the experiment with UO-31 renal, 3.98 µM. For the same compound, the TGI is 25.4 µM in the experiment with HCT-116 colon; 20.3 µM in the experiment on HCT-15 colon; 16.7 µM in the experiment with M14 melanoma; 18.3 µM with MCF7 breast; 17.7 µM in the experiment on NCI-H460 lung; 18.5 µM in the experiment with SK-MEL-28 melanoma. Besides, the TGI is 25.6 µM in the experiment on SNB-19 CNS, 23.7 µM with SNB-75 CNS, 14.4 µM with U251 CNS and 16.1 µM with UO-31 renal.
